The values below come from patent USH1992H, “Metalloproteinase inhibitors, pharmaceutical compositions containing them, and their pharmaceutical uses” (Agouron Pharmaceuticals, Inc., priority 1999, dated 2001).

Holding throughout (type): biochemical
For one assay, the target named is T1, human matrilysin (Matr) (Homo sapiens, UniProt P09237).
T1 construct: the catalytic domain was liberated by treatment with 2mM APMA; ubiquitin (fusion) (cleaved yes); made in house; host or cells: E. coli
T1 sequence (P09237 95-267): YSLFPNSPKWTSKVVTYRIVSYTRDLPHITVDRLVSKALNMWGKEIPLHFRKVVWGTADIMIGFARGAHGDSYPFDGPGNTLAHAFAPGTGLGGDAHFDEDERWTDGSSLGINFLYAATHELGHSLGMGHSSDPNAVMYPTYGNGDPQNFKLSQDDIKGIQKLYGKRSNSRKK
Nature of the assay: Inhibition of matrilysin (Matr) - fluorogenic MCA peptide substrate hydrolysis. Particulars: catalytic domain; Ki,app; MCA peptide substrate 10 μM, pH 7.5, 37° C., 2% DMSO. The method, then: Human matrilysin (Matr) was expressed in E. coli as a fusion protein with ubiquitin. After purification of the matrilysin/ubiquitin fusion from inclusion bodies, the catalytic domain was liberated by treatment with 2mM APMA at 37 ° C. for 2 hours. Final purification was complete using copper chelate chromatography.
(§1) Assays were performed in assay buffer (50 mM Tricine pH 7.5, 200 mM sodium chloride, 10 mM calcium chloride, 0.5 mM zinc acetate containing 2% dimethyl sulfoxide (DMSO)), once the substrate and inhibitor were diluted into it. Stock solutions of inhibitors were prepared in 100 % DMSO. Stock solutions of the substrate were prepared in 100 % DMSO at a concentration of 6 mM.
(§2) The assay method was based on the hydrolysis of MCA-Pro-Leu-Gly-Leu-DPA-Ala-Arg-NH2 (American Peptide Co.) at 37° C. (see Knight, C. G. et al., FEBS, 1992, 296, 263-266, which article is entirely incorporated herein by reference). The fluorescence changes were monitored with a Perkin-Elmer LS-50B fluorimeter using an excitation wavelength of 328 nm and an emission wavelength of 393 nm. The substrate concentration used in the assays was 10 μM. The inhibitor was diluted into the assays from a solution in 100 % DMSO, and controls substituted an equal volume of DMSO so that the final DMSO concentration from inhibitor and substrate dilution in all assays was 2%. […] Proper determination of steady-state rates of substrate cleavage required assay lengths of 60 minutes to allow for complete equilibration of the enzyme-inhibitor complex.
(§3) The Km for the MCA peptide substrate with the matrix metalloproteinases is quite high and exceeds its solubility under assay conditions. Consequently, the apparent Ki (Ki, app) was determined to describe the strength of inhibition. However, in this case, Ki,app would be essentially equal to Ki since [S]<<Km. For the determination of Ki,app, the concentration of the inhibitor was varied at a constant and low concentration of substrate, and the steady-state rates of fluorescence change were determined. In most cases, absorptive quench due to the presence of ligand was not observed. For slow-binding inhibitors, onset of inhibition curves were collected for at least 45 minutes so that equilibrium was established. Steady-state rates of fluorescence change were obtained by fitting a curve to an equation for a single exponential decay containing a linear phase. The fitted value of the linear phase was taken as the steady-state rate. The steady-state rates were fitted to the Michaelis equation describing competitive inhibition by non-linear methods. Data resulting from tight-binding inhibition was analyzed, and Ki,app determined by fitting the data to the tight-binding equation of Morrison (Biochem. Biophys. Acta, vol. 185, pp. 269-286 (1969), which article is entirely incorporated herein by reference) by non-linear methods.
(§4) All Ki values are in nM units.

The target in assay [1] is T2, human collagenase-1 (HFC) (Homo sapiens, UniProt P03956).
T2 construct: the fibroblast collagenase-1 catalytic domain (HFC) was released; ubiquitin (fusion) (cleaved yes); made in house; host or cells: E. coli
T2 sequence (P03956 100-269 limits assumed): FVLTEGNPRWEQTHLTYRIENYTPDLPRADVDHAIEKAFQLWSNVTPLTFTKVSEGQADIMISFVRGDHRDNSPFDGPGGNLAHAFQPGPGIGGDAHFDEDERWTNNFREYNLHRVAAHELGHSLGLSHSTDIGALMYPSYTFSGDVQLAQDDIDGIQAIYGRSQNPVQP
The assay can be described thus: Inhibition of collagenase-1 (HFC) - fluorogenic MCA peptide substrate hydrolysis. Particulars: catalytic domain; Ki,app; MCA peptide substrate 10 μM, pH 7.5, 37° C., 2% DMSO.
Text: The catalytic domain of human collagenase-1 was expressed as a fusion protein with ubiquitin in E. coli (see Gehring, E. R., J. Biol. Chem., 1995, 270, 22507, which article is entirely incorporated herein by reference). After purification of the fusion protein, the fibroblast collagenase-1 catalytic domain (HFC) was released either by treatment with purified, active stromelysin-1 (1:50 w/w ratio), which generated nearly 100% N-terminal Phe1, or by autoprocessing the concentrated collagenase-1 fusion and then incubating at 37° C. for 1 hour. Final purification was completed using zinc chelate chromatography.
as §1, §2, §3, §4

Assay [2] deals with T3, human stromelysin-1 (Strom) (Homo sapiens, UniProt P08254).
T3 construct: The catalytic domain of human stromelysin (Sln) was obtained by expression and purification of a C-terminally truncated prostromelysin-1; made in house; host or cells: E. coli BL21
The assay can be described thus: Inhibition of stromelysin (Strom) - fluorogenic MCA peptide substrate hydrolysis. As to conditions: catalytic domain; Ki,app; MCA peptide substrate 10 μM, pH 7.5, 37° C., 2% DMSO; enzyme 1.5 nM. The procedure: The catalytic domain of human stromelysin (Sln) was obtained by expression and purification of a C-terminally truncated prostromelysin-1 from E. coli host BL21 (see Marcy et al. Biochem., 1991, 30, 6476, which article is entirely incorporated herein by reference). The subsequent activation of the mature form (Sln) was completed with 2mM APMA for 1 hour at 37° C., followed by separation using a sizing column.
as §1, §2, §3, §4

Assay [3] concerns the target human gelatinase A (Gel A). The assay can be described thus: Inhibition of gelatinase A (Gel A) - fluorogenic MCA peptide substrate hydrolysis. Particulars: catalytic and fibronectin-like portion; Ki,app; MCA peptide substrate 10 μM, pH 7.5, 37° C., 2% DMSO; enzyme 60 pM. The method, then:
The catalytic and fibronectin-like portion of human progelatinase A (GelA) was expressed as a fusion protein with ubiquitin in E. Coli. Assays were carried out on autocatalytically activated material.
as §1, §2, §3, §4

The target of assay [4] is human collagenase-3 (Coll-3). The assay can be described thus: Inhibition of collagenase-3 (Coll-3) - fluorogenic MCA peptide substrate hydrolysis. Particulars: catalytic domain; Ki,app; MCA peptide substrate 10 μM, pH 7.5, 37° C., 2% DMSO. The procedure:
The propeptide and catalytic domain of human collagenase-3 (Coll3) was expressed in E. coli as an N-terminal fusion protein with ubiquitin. After purification of the fusion from inclusion bodies, the catalytic domain was liberated by treatment with 2mM APMA at room temperature overnight. Final purification was completed using copper chelate chromatography.
as §1, §2, §3, §4

T3 sequence (P08254 100-272 limits assumed): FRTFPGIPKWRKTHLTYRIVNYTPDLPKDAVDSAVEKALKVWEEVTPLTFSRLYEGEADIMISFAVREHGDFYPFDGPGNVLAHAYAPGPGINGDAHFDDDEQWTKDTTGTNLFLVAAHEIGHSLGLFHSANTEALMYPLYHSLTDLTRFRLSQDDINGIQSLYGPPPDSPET

Turning to `O=C(NO)[C@H]1CCCCN1S(=O)(=O)c1ccc(Oc2ccccc2)cc1` [Example 7, 2(R)-1-(4-Phenoxy-benzenesulfonyl)-N-hydroxy-piperidine-2-carboxamide], the results for the Ki (on human matrilysin (Matr); in assay [1]; in assay [2]) were 55 nM, 6.6 nM and 0.07 nM, respectively.

With `O=C(O)[C@H]1CCCCN1S(=O)(=O)c1ccc(Oc2ccc(-c3ccccc3)cc2)cc1` [Example 6(a)], the Ki in assay [3] was 64 nM; in assay [4] it was 212 nM; on human matrilysin (Matr), 72000 nM; in assay [1], 125000 nM; in assay [2] it was 2190 nM.

Regarding `O=C(NO)[C@H]1CCCCN1S(=O)(=O)c1ccc(Oc2ccc(-c3ccccc3)cc2)cc1` [Example 6, 2(R)-1-[4-(Biphenyl-4-yl)oxybenzenesulfonyl]-N-hydroxy-piperidine-2-carboxamide], the Ki in assay [3] came out at 0.014 nM; on human matrilysin (Matr), 6.7 nM; in assay [1], 8.8 nM; in assay [2] it was 0.06 nM.

Regarding `O=C(O)[C@H]1CCCCN1S(=O)(=O)c1ccc(Oc2ccc(Br)cc2)cc1` [Example 5(a)], the Ki was 192 nM in assay [3]; 448 nM in assay [4]; 540000 nM on human matrilysin (Matr); 481000 nM in assay [1]; 16000 nM in assay [2].

Take `CCOP(=O)(CN(CC(=O)O)S(=O)(=O)c1ccc(Oc2ccccc2)cc1)OCC` [Example 4(a), 2(R)-2-[(diethylphosphonomethyl)(4-phenoxybenzenesulfonyl)-amino]-acetic acid]: the Ki was determined as 740 nM in assay [4] and 27000 nM in assay [2].

For `CC(C)[C@H](C(=O)NO)N(Cc1cccnc1)S(=O)(=O)c1ccc(Oc2ccc(Br)cc2)cc1` [Example 3(a), 2(R)-2-[4-(4-Bromophenoxy)benzenesulfonyl][(pyridin-3-yl)methyl]amino-N-hydroxy-3-methylbutanamide], the Ki was 0.02 nM in assay [4], 7.6 nM in assay [1] and 0.35 nM in assay [2].

Take `CC(C)[C@H](C(=O)NO)N(Cc1cccnc1)S(=O)(=O)c1ccc(Oc2ccccc2)cc1` [Example 3(b), 2(R)-N-hydroxy-2-[(4-phenoxy)benzenesulfonyl][(pyridin-3-yl)methyl]amino-3-methylbutanamide]: the Ki in assay [4] worked out at 0.05 nM; in assay [1] it was 6 nM; in assay [2], 1.2 nM.

In the case of `O=C(NO)[C@H]1CCCCN1S(=O)(=O)c1ccc(Oc2ccc(Br)cc2)cc1` [Example 5, 2(R)-1-[4-(4-Bromophenoxy)benzenesulfonyl]-N-hydroxypiperidine-2-carboxamide], the Ki in assay [3] was determined as 0.018 nM; in assay [4], 0.014 nM; at human matrilysin (Matr), 44 nM; in assay [1], 15 nM; in assay [2], 0.04 nM.

On to `CCOP(=O)(CN(CC(=O)NO)S(=O)(=O)c1ccc(Oc2ccccc2)cc1)OCC` [Example 4, 2(R)-2-[(diethylphosphonomethyl)(4-phenoxybenzenesulfonyl)amino]-N-hydroxyacetamide], for which the Ki in assay [4] was determined as 0.09 nM; in assay [1], 27 nM; in assay [2] it was 0.23 nM.
